Assay results from the NIST ThermoML archive (doi:10.1021/je2005402).
Numbers after ± are expanded uncertainties.

Conditions: Liquid, Ebulliometric method (Recirculating still)

Row | Compound | vapor or sublimation pressure (363.25 K) [kPa] | vapor or sublimation pressure (337.85 K) [kPa]
1 | COC(=O)OC [dimethyl carbonate] | 101.32 ± 1.1 | –
2 | CO [methanol] | – | 101.32 ± 1.1
